Assay results: patent US8846719B2, “Isoxazolo-pyridine derivatives” (Roche Palo Alto LLC, priority 2007, dated 2014)

Molecular target: human GABA A receptor α5β3γ2 (Homo sapiens (Human), UniProt P18507+P31644)
Test: [3H]flumazenil competition binding assay, human GABA A α5β3γ2 receptors expressed in HEK293 cells
Conditions: human receptor; displacement of [3H]flumazenil (0.5 nM); means of two determinations; read-out: hKi GABAAa5
In short: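 Competition for [3H]flumazenil binding on membranes of HEK293 cells transiently transfected with human α5β3γ2 receptors, in Krebs-tris buffer pH 7.5.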

Q: Cc1onc(-c2ccncn2)c1COc1ccc(C(=O)N2CCSCC2)cn1 [Example 319, [6-(5-Methyl-3-pyrimidin-4-yl-isoxazol-4-ylmethoxy)-pyridin-3-yl]-thiomorpholin-4-yl-methanone] was tested. Which Ki did it give?
A: 20.2 nM

Q: Which Ki does the source give for Cc1onc(-c2ccncc2)c1COc1ccc(C(=O)N2CCOCC2)cn1 [Example 151, [6-(5-Methyl-3-pyridin-4-yl-isoxazol-4-ylmethoxy)-pyridin-3-yl]-morpholin-4-yl-methanone] here?
A: 84.5 nM

Q: For CC(O)CNC(=O)c1ccc(OCc2conc2-c2ccc(Cl)cc2)nc1 (stereo not shown) [Example 347, 6-[3-(4-Chloro-phenyl)-isoxazol-4-ylmethoxy]-N-(2-hydroxy-propyl)-nicotinamide], which Ki is on record?
A: 7.1 nM

Q: With Cc1onc(-c2ccc(Cl)cn2)c1COc1ccc(C(=O)NCCO)cn1 [Example 311, 6-[3-(5-Chloro-pyridin-2-yl)-5-methyl-isoxazol-4-ylmethoxy]-(2-hydroxy-ethyl)-nicotinamide] as the molecule, how does the Ki read?
A: 0.1 nM

Q: How did the Ki turn out when CC(=O)NCCNC(=O)c1ccc(OCc2conc2-c2ccc(F)cc2)nc1 [Example 335, N-(2-Acetylamino-ethyl)-6-[3-(4-fluoro-phenyl)-isoxazol-4-ylmethoxy]-nicotinamide] was run?
A: 37.6 nM

Q: Which Ki does the source give for Cc1onc(-c2ccccc2)c1COc1cc(C(=O)NC2CCOCC2)ccn1 [Example 59, 2-(5-Methyl-3-phenyl-isoxazol-4-ylmethoxy)-N-(tetrahydro-pyran-4-yl)-isonicotinamide] here?
A: 55.4 nM

Q: How did the Ki turn out when Cc1onc(-c2ccc(Cl)cn2)c1COc1ccc(C(=O)NC2CC2)cn1 [Example 303, 6-[3-(5-Chloro-pyridin-2-yl)-5-methyl-isoxazol-4-ylmethoxy]-cyclopropyl-nicotinamide] was run?
A: 0.3 nM

Q: For Cc1onc(-c2ccccn2)c1COc1ccc(C(=O)NCC(F)(F)F)cn1 [Example 275, 6-(5-Methyl-3-pyridin-2-yl-isoxazol-4-ylmethoxy)-N-(2,2,2-trifluoro-ethyl)-nicotinamide], which Ki is on record?
A: 1.1 nM

Q: With Cc1onc(-c2ccccc2)c1COc1ccc(C(=O)NCC2(O)CC2)cn1 [Example 194, N-(1-Hydroxy-cyclopropylmethyl)-6-(5-methyl-3-phenyl-isoxazol-4-ylmethoxy)-nicotinamide] as the molecule, how does the Ki read?
A: 2.1 nM

Q: Which Ki does the source give for Cc1onc(-c2ccccc2)c1COc1ccc(C(=O)NC2CC(OCc3ccccc3)C2)cn1 (stereo not shown) [Example 226, N-(3-Benzyloxy-cyclobutyl)-6-(5-methyl-3-phenyl-isoxazol-4-ylmethoxy)-nicotinamide] here?
A: 2.6 nM

Q: How did the Ki turn out when O=C(NCC1CC1)c1ccc(OCc2conc2-c2ccccn2)nc1 [Example 361, N-Cyclopropylmethyl-6-(3-pyridin-2-yl-isoxazol-4-ylmethoxy)-nicotinamide] was run?
A: 19 nM

Q: For O=C(NC(CO)CO)c1ccc(OCc2conc2-c2ccc(Cl)cc2)nc1 [Example 353, 6-[3-(4-Chloro-phenyl)-isoxazol-4-ylmethoxy]-N-(2-hydroxy-1-hydroxymethyl-ethyl)-nicotinamide], which Ki is on record?
A: 5.5 nM

Q: Which Ki does the source give for Cc1onc(-c2ccccc2)c1COc1cc(OCc2ccccc2)ccn1 [Example 56, 4-Benzyloxy-2-(5-methyl-3-phenyl-isoxazol-4-ylmethoxy)-pyridine] here?
A: 35.1 nM

Q: For Cc1onc(-c2cc(F)ccc2F)c1COc1ccc(C(=O)NC(C)C)cn1 [Example 265, 6-[3-(2,5-Difluoro-phenyl)-5-methyl-isoxazol-4-ylmethoxy]-N-isopropyl-nicotinamide], which Ki is on record?
A: 27.3 nM

Q: Which Ki does the source give for Cc1onc(-c2ccccc2)c1CNc1ccc(C(=O)NC2CCOCC2)cn1 [Example 166, 6-[(5-Methyl-3-phenyl-isoxazol-4-ylmethyl)-amino]-N-(tetrahydro-pyran-4-yl)-nicotinamide] here?
A: 8.8 nM

Q: Which Ki does the source give for Cc1onc(-c2ccccc2)c1COc1ccccn1 [Example 1, 2-(5-Methyl-3-phenyl-isoxazol-4-ylmethoxy)-pyridine] here?
A: 36.5 nM

Q: For O=C(NC1CC1)c1ccc(OCc2conc2-c2ccc(F)cc2)nc1 [Example 329, N-Cyclopropyl-6-[3-(4-fluoro-phenyl)-isoxazol-4-ylmethoxy]-nicotinamide], which Ki is on record?
A: 12.9 nM

Q: Which Ki does the source give for Cc1onc(-c2ccccc2)c1COc1ccc(C(=O)N2CCC(O)C2)cn1 (stereo not shown) [Example 223, (3-Hydroxy-pyrrolidin-1-yl)-[6-(5-methyl-3-phenyl-isoxazol-4-ylmethoxy)-pyridin-3-yl]-methanone] here?
A: 26.1 nM

Q: Which Ki does the source give for Cc1onc(-c2ccc(F)cc2)c1COc1ccc(C(=O)O)cn1 [Example 104, 6-[3-(4-Fluoro-phenyl)-5-methyl-isoxazol-4-ylmethoxy]-nicotinic acid] here?
A: 39.5 nM

Q: With Cc1onc(-c2ccc(F)c(F)c2)c1COc1ccc(C(=O)NC(C)C)cn1 [Example 126, 6-[3-(3,4-Difluoro-phenyl)-5-methyl-isoxazol-4-ylmethoxy]-N-isopropyl-nicotinamide] as the molecule, how does the Ki read?
A: 4.7 nM

Q: For O=C(NCC1CC1)c1ccc(OCc2c(-c3ccccc3)noc2C(F)(F)F)nc1 [Example 132, N-Cyclopropylmethyl-6-(3-phenyl-5-trifluoromethyl-isoxazol-4-ylmethoxy)-nicotinamide], which Ki is on record?
A: 28.3 nM

Q: With Cc1onc(-c2ccc(F)cn2)c1COc1ccc(C(=O)NCC2CC2)cn1 [Example 292, Cyclopropylmethyl-6-[3-(5-fluoro-pyridin-2-yl)-5-methyl-isoxazol-4-ylmethoxy]-nicotinamide] as the molecule, how does the Ki read?
A: 0.4 nM

Q: With Cc1onc(-c2ccccc2)c1COc1ccc(C(=O)NC2CCS(=O)(=O)CC2)cn1 [Example 33, N-(1,1-Dioxo-hexahydro-1,6-thiopyran-4-yl)-6-(5-methyl-3-phenyl-isoxazol-4-ylmethoxy)-nicotinamide] as the molecule, how does the Ki read?
A: 4.9 nM

Q: Which Ki does the source give for Cc1onc(-c2ccccc2)c1COc1ccc(C(=O)NC2CCCC2O)cn1 (stereo not shown) [Example 200, N-(2-Hydroxy-cyclopentyl)-6-(5-methyl-3-phenyl-isoxazol-4-ylmethoxy)-nicotinamide] here?
A: 3.9 nM

Q: For Cc1onc(-c2ccccc2)c1COc1ccc(C(=O)N[C@@H](C)CO)cn1 [Example 196, N—((S)-2-Hydroxy-1-methyl-ethyl)-6-(5-methyl-3-phenyl-isoxazol-4-ylmethoxy)-nicotinamide], which Ki is on record?
A: 0.7 nM

Q: With Cc1onc(-c2ccccc2)c1COc1ccc(C(=O)NCCCCCCO)cn1 [Example 222, N-(6-Hydroxy-hexyl)-6-(5-methyl-3-phenyl-isoxazol-4-ylmethoxy)-nicotinamide] as the molecule, how does the Ki read?
A: 8.2 nM

Q: How did the Ki turn out when Cc1onc(-c2ccccc2)c1COc1ccc(C(=O)NCC(O)C(F)(F)F)cn1 (stereo not shown) [Example 186, 6-(5-Methyl-3-phenyl-isoxazol-4-ylmethoxy)-N-(3,3,3-trifluoro-2-hydroxy-propyl)-nicotinamide] was run?
A: 2.3 nM

Q: Which Ki does the source give for Cc1onc(-c2cccc(F)c2)c1COc1ccc(C(=O)N2CCS(=O)(=O)CC2)cn1 [Example 96, (1,1-Dioxo-1λ6-thiomorpholin-4-yl)-{6-[3-(3-fluoro-phenyl)-5-methyl-isoxazol-4-ylmethoxy]-pyridin-3-yl}-methanone] here?
A: 13.4 nM

Q: With Cc1onc(-c2ccccc2)c1COc1ccc(C(=O)NC[C@@H](C)O)cn1 (racemic) [Example 14, (R,S)—N-(2-Hydroxy-propyl)-6-(5-methyl-3-phenyl-isoxazol-4-ylmethoxy)-nicotinamide] as the molecule, how does the Ki read?
A: 2.5 nM

Q: With Cc1onc(-c2ccc(Cl)cn2)c1COc1ccc(C(=O)NC(C)(C)CO)cn1 [Example 305, 6-[3-(5-Chloro-pyridin-2-yl)-5-methyl-isoxazol-4-ylmethoxy]-(2-hydroxy-1,1-dimethyl-ethyl)-nicotinamide] as the molecule, how does the Ki read?
A: 0.6 nM

Q: How did the Ki turn out when Cc1onc(-c2ccc(F)cc2)c1CNc1ccc(C(=O)NCC2CC2)cn1 [Example 174, N-Cyclopropylmethyl-6-{[3-(4-fluoro-phenyl)-5-methyl-isoxazol-4-ylmethyl]-amino}-nicotinamide] was run?
A: 7.6 nM

Q: Which Ki does the source give for Cc1cc(C(=O)NC(C)C)cnc1OCc1c(-c2ccccc2)noc1C [Example 69, N-Isopropyl-5-methyl-6-(5-methyl-3-phenyl-isoxazol-4-ylmethoxy)-nicotinamide] here?
A: 2.95 nM

Q: For Cc1onc(-c2cccc(Cl)c2)c1COc1ccc(C(=O)NC2CCOCC2)cn1 [Example 101, 6-[3-(3-Chloro-phenyl)-5-methyl-isoxazol-4-ylmethoxy]-N-(tetrahydro-pyran-4-yl)-nicotinamide], which Ki is on record?
A: 3.9 nM

Q: Which Ki does the source give for Cc1onc(-c2cc(F)ccc2F)c1COc1ccc(C(=O)NC2CCOCC2)cn1 [Example 266, 6-[3-(2,5-Difluoro-phenyl)-5-methyl-isoxazol-4-ylmethoxy]-N-(tetrahydro-pyran-4-yl)-nicotinamide] here?
A: 4.3 nM

Q: With Cc1onc(-c2ccccc2)c1COc1ccc(C(=O)NCC(=O)OC(C)(C)C)cn1 [Example 24, {[6-(5-Methyl-3-phenyl-isoxazol-4-ylmethoxy)-pyridine-3-carbonyl]-amino}-acetic acid tert-butyl ester] as the molecule, how does the Ki read?
A: 35 nM

Q: For Cc1onc(-c2ccccc2)c1COc1ccc(C(=O)Nc2ccn(C)n2)cn1 [Example 244, 6-(5-Methyl-3-phenyl-isoxazol-4-ylmethoxy)-N-(1-methyl-1H-pyrazol-3-yl)-nicotinamide], which Ki is on record?
A: 5.1 nM

Q: For Cc1onc(-c2ccccc2)c1COc1ccc(NC(=O)C2CC2)cn1 [Example 182, Cyclopropanecarboxylic acid [6-(5-methyl-3-phenyl-isoxazol-4-ylmethoxy)-pyridin-3-yl]-amide], which Ki is on record?
A: 10.1 nM

Q: Which Ki does the source give for Cc1onc(-c2ccc(F)cc2F)c1COc1ccc(C(=O)NC2CCOCC2)cn1 [Example 264, 6-[3-(2,4-Difluoro-phenyl)-5-methyl-isoxazol-4-ylmethoxy]-N-(tetrahydro-pyran-4-yl)-nicotinamide] here?
A: 2.3 nM

Q: With Cc1onc(-c2ccc(F)cc2)c1CNc1ccc(C(=O)NCC(F)(F)F)cn1 [Example 173, 6-{[3-(4-Fluoro-phenyl)-5-methyl-isoxazol-4-ylmethyl]-amino}-N-(2,2,2-trifluoro-ethyl)-nicotinamide] as the molecule, how does the Ki read?
A: 5.9 nM

Q: With Cc1onc(-c2ccccc2)c1COc1ccc(C(=O)N[C@@H]2CCOC(C)(C)C2)cn1 (racemic) [Example 32, (R,S)—N-(2,2-Dimethyl-tetrahydro-pyran-4-yl)-6-(5-methyl-3-phenyl-isoxazol-4-ylmethoxy)-nicotinamide] as the molecule, how does the Ki read?
A: 8 nM
